Where two headings read alike, the source gives them in different places.
What was measured:
[1] = target: T1, hEP2 (Homo sapiens, UniProt P43116); assay: hEP2 flipr functional assay; format: cell-based
Text: (§1) U.S. patent application Ser. No. 11/553,143, filed on Oct. 26, 2006, describes the methods used to obtain the in vitro data in the table below.

[2] = target: T1, hEP2; assay: hEP2 cAMP functional assay; format: cell-based
Text: as §1

[3] = target: T1, hEP2; assay: hEP2 binding (Ki)
Text: as §1

[4] = target: T2, hEP4 (Homo sapiens, UniProt P35408); assay: hEP4 flipr functional assay; format: cell-based
T2 sequence (P35408 whole entry): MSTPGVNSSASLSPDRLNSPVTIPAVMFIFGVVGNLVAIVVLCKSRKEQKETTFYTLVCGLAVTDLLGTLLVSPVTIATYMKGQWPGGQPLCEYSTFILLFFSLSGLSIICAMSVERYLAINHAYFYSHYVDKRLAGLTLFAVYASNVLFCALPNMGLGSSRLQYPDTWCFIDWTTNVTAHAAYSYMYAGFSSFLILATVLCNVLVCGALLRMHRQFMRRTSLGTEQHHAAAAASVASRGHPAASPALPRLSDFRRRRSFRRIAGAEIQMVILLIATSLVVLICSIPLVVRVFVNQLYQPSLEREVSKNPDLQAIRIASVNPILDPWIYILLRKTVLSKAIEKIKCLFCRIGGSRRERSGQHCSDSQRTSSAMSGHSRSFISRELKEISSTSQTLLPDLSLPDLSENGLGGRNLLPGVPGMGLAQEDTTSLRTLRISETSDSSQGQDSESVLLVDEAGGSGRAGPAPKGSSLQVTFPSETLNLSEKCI
Text: as §1

[5] = target: T2, hEP4; assay: hEP4 binding (Ki)
Text: as §1

[6] = target: T3, hEP1 (Homo sapiens, UniProt P34995); assay: Other receptors: hEP1; format: cell-based
T3 sequence (P34995 1-402): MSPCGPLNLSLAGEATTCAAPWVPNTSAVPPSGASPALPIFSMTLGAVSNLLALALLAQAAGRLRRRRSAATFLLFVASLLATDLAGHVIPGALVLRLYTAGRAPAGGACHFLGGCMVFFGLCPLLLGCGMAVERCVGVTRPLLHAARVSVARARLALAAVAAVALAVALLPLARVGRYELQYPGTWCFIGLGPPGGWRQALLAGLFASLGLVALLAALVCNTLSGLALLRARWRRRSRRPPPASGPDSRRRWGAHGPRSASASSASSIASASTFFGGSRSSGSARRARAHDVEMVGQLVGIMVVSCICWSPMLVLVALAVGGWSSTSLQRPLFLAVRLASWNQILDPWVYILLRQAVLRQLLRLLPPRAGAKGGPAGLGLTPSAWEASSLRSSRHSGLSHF
Text: as §1

[7] = target: T4, hEP3 (Homo sapiens, UniProt P43115); assay: Other receptors: hEP3 / hEP3A; format: cell-based
T4 sequence (P43115 1-390): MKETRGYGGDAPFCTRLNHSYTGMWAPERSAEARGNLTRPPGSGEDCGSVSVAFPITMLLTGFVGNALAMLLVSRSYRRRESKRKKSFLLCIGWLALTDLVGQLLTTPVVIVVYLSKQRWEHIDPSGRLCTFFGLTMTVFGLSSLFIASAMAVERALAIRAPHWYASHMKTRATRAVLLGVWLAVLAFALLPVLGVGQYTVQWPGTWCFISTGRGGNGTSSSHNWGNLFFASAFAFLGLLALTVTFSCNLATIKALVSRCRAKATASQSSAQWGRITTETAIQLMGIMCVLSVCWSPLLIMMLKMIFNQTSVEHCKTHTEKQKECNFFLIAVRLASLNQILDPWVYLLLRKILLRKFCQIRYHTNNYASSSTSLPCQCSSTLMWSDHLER
Text: as §1

[8] = target: T5, hDP (Homo sapiens, UniProt Q13258); assay: Other receptors: hDP; format: cell-based
T5 sequence (Q13258 1-359): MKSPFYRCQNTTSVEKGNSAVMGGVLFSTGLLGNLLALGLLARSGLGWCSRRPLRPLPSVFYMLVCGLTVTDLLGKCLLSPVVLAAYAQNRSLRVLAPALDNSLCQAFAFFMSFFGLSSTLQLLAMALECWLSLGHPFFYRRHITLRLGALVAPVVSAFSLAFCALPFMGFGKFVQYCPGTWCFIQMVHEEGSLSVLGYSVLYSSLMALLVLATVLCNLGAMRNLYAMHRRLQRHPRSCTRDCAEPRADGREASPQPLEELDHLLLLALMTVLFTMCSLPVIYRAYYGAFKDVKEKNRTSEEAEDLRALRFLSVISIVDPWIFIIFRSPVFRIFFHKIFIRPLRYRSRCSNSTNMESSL
Text: as §1

[9] = target: T6, hTP (Homo sapiens, UniProt P21731); assay: Other receptors: hTP; format: cell-based; conditions: the 2nd table
T6 sequence (P21731 1-343): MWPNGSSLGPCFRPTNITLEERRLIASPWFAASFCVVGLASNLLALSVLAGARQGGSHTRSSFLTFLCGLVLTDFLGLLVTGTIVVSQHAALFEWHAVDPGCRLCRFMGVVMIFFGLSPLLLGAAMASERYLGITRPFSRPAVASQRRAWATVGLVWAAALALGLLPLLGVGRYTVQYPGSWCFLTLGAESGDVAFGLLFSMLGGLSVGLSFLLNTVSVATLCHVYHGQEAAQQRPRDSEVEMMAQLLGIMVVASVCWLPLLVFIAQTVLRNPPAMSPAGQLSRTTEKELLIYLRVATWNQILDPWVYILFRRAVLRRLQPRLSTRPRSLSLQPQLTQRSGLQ
Text: as §1

[10] = the 2nd table, read-out: hEP2 flipr EC50
[11] = the 2nd table, read-out: hEP2 cAMP EC50
[12] = the 2nd table, read-out: hEP2 Ki
[13] = the 2nd table, read-out: Other Receptors hEP3

T1 sequence (P43116 whole entry): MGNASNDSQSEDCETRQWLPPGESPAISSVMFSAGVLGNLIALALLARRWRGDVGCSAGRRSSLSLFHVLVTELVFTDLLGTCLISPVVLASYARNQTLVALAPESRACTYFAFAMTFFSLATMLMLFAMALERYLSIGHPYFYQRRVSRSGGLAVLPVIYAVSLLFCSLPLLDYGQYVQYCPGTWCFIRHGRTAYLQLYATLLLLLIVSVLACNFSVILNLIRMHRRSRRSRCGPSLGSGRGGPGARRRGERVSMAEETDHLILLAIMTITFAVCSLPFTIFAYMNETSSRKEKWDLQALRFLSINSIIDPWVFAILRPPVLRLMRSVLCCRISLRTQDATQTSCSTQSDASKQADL

Row | Compound | EC50 ([1]; the 3rd table, read-out: EP2 data flipr EC50) [µM] | EC50 ([2]; the 3rd table, read-out: EP2 data cAMP EC50) [µM] | Ki ([3]; the 3rd table, read-out: EP2 data Ki) [µM] | EC50 ([4]; the 3rd table, read-out: EP4 data flipr EC50) [µM] | Ki ([5]; the 3rd table, read-out: EP4 data KI) [µM] | EC50 ([6]; the 3rd table, read-out: Other Receptors (ED50 in nM) hEP1) [nM] | EC50 ([7]; the 3rd table, read-out: Other Receptors (ED50 in nM) hEP3A) [nM] | EC50 ([8]; the 3rd table, read-out: Other Receptors (ED50 in nM) hDP) [nM] | EC50 [1, 10] [µM] | EC50 [2, 11] [µM] | Ki [3, 12] [µM] | EC50 ([4]; the 2nd table, read-out: hEP4 flipr EC50) [µM] | Ki ([5]; the 2nd table, read-out: hEP4 Ki) [µM] | EC50 ([6]; the 2nd table, read-out: Other Receptors hEP1) [nM] | EC50 [7, 13] [nM] | EC50 [9] [µM] | EC50 ([8]; the 2nd table, read-out: Other Receptors hDP) [nM]
1 | CCc1cccc(OC[C@@H]2[C@@H](CCCc3ccc(C(=O)O)s3)[C@H](Cl)C[C@H]2O)c1 [5-(3-((1R,2S,3R,5R)-5-chloro-2-((3-ethylphenoxy)methyl)-3-hydroxycyclopentyl)propyl)thiophene-2-carboxylic acid] | 0.447 | 0.0004 | 0.004 | 6.74 | 0.214 | 31500 | 3570 | 4440 |  |  |  |  |  |  |  |  | 
2 | COCc1cc(Cl)cc(OC[C@@H]2[C@@H](C/C=C\CCCC(=O)O)[C@H](Cl)C[C@H]2O)c1 [(Z)-7-[(1R,2S,3R,5R)-5-Chloro-2-(3-chloro-5-methoxymethyl-phenoxymethyl)-3-hydroxy-cyclopentyl]-hept-5-enoic acid] |  |  |  |  |  |  |  |  | 3.41 | 0.008 | 0.039 | 4.82 | 1.45 | 5180 | 7210 | > 10 | 
3 | O=C(O)CCC/C=C\C[C@@H]1[C@@H](COc2cc(Cl)cc(CCO)c2)[C@H](O)C[C@H]1Cl [(Z)-7-{(1R,2S,3R,5R)-5-Chloro-2-[3-chloro-5-(2-hydroxyethyl)-phenoxymethyl]-3-hydroxy-cyclopentyl}-hept-5-enoic acid] |  |  |  |  |  |  |  |  | 0.644 | 0.007 | 0.107 |  |  |  | 8830 | > 10 | > 10000
